# Patent publication US8110544B2, “RasGAP derived peptide for selectively killing cancer cells” (Universite de Lausanne, priority 2003, dated 2012)
# Experiments:
# Assay type in all cases: cell-based, human
# [1] = test system: HeLa, U2OS, H-Meso1, MCF-7, HaCat and HUV-EC-C cell lines; test: Cellular uptake of FITC-labelled peptide (epifluorescence of live cells); conditions: FITC-labelled peptide 20 μM
# Protocol: The following cell lines (HeLa, U2OS, H-Meso1, MCF-7, HaCat and HUV-EC-C) were incubated 3 hours at 37° C., 5% CO2 in culture medium with 20 μM FITC-labelled TAT-RasGAP317-326 peptide and then washed three times with culture medium.
# Fluorescein isothiocyanate (FITC)-labeling was performed on the sequence β-alanine-[…] (SEQ ID NO: 16) whose side chain Fmoc-protected amino acids were Arg(bpf), Lys(Boc), Gln(Trt), Trp(Boc), Thr(tBu), Asn(Trt), and Asp(OtBu). The peptide was synthesized stepwise on 0.2 mmol Rink Amide AM resin using Fmoc chemistry. The synthesis was monitored by ninhydrin test. After the coupling of β-alanine, the Fmoc group was removed with 20% piperidine in dimethylformamide (DMF). At this stage, a fluorescein group was conjugated to the N-terminus of peptide with FITC (5 fold excess over the substitution of the resin in 4 ml DMF and 1 ml N-ethyldiisopropylamine) to form the fluorescein-derivated peptide.
# If a plasmid encoding amino acid 317-326 of RasGAP has the ability to enhance the ability of a drug to kill cancer cells, a synthetic peptide corresponding to the […] should also display this activity provided that it can penetrate cells. […] We first assessed the sensitivity of the cancer cell lines towards increasing concentrations of the three genotoxins (data not shown). […]
# [2] = test system: cancer cell lines (HeLa, U2OS, MCF-7, and H-Meso1); test: Genotoxin-induced apoptosis (pycnotic nuclei) in cancer cell lines with or without peptides; conditions: 20 μM peptide
# Protocol: Four cancer cell lines (HeLa, U2OS, MCF-7, and H-Meso1) were plated in 6-wells plates and treated with the indicated concentrations of cisplatin, adriamycin and mitoxantrone in the absence or in the presence of either 20 μM MV-TAT48-57 Or TAT-RaSGAP317-326 peptides for 20 hours. The number of cells displaying pycnotic nucleus was then scored. The results correspond to the mean±standard deviation of three independent determinations. Asterisks denote significant differences between the genotoxin-treated cells incubated with TAT-RaSGAP317-326 and those left untreated or incubated with the HIV-TAT48-57 peptide (**, p<0.01; ***, p<0.001).
# Apoptosis was determined by scoring the number of cells displaying pycnotic nuclei. Nuclei of live cells were labeled with Hoechst 33342 (10 μg/ml final concentration) for about 5 minutes and the cells were then analyzed (at least 400 cells per condition) using an inverted Leica DMIRB microscope equipped with fluorescence and transmitted light optics. Assessment of apoptosis was performed one day after the transfection or treatment of the cells. In experiment involving transfected cells, pEGFP-C1 was included in the transfection solution to label the transfected cells with GFP. In this case, the extent of apoptosis was assessed in the transfected cells only. […]
# NFκB activity = test: NFκB firefly luciferase reporter assay in U2OS cells; conditions: 20 hours
# Protocol: U2OS Cells (1×10^5) were plated in 6 well plates and transfected with 1 μg of a firefly luciferase reporter plasmid for NFκB activity and 0.1 μg of a plasmid encoding the Renilla luciferase. The cells were treated one day later with the indicated concentrations of cisplatin in the absence or in the presence of 20 μM HV-TAT48-57 or TAT-RaSGAP317-326 peptides during 20 hours. The data represent the firefly luciferase activity normalized to the Renilla luciferase activity and expressed as fold increase of the basal NFκB activity obtained in control untreated cells. The results correspond to the mean±standard deviation of three independent determinations. Asterisks denote significant differences between the indicated conditions (**, p<0.01; ***, p<0.001).
# (§1) U2OS cells were transfected with 1 μg of a firefly luciferase reporter plasmid for NFκB activity, 0.1 μg of a plasmid encoding the Renilla luciferase, 0.5 μg of a GFP-expressing plasmid (to label the transfected cells), 1 μg of a plasmid encoding IκBαΔN2 that inhibit the NFκB pathway or with 1 μg an empty pcDNA3 vector. The cells were incubated one day later with increasing concentrations of cisplatin in the presence of 20 μM HIV-TAT48-57 or 20 μM TAT-RasGAP317-326 for an additional 20 hour period. The cells were then lysed and the NFκB activity assessed as described in panel A, except that the results were expressed as fold increase of the NFκB activity detected in cells incubated with the control HV-TAT48-57 peptide.
# Luciferase assay was performed using the Dual-Luciferase® Reporter Assay from Promega (cat. no E1910). […] The firefly luciferase activity was recorded by mixing 20 μl of the lysate with 25 μl of the LARII Reagent and the Renilla luciferase activity was recorded by adding to the previous mix 25 μl of the Stop & Glo Reagent. For each measurement, light emission was quantified during 12 seconds using a Lumat LB 9501 luminometer (Berthold Technologies, Zurich, Switzerland).
# U2OS cells = test: Apoptosis of transfected (GFP-positive) U2OS cells with or without IκBαΔN2; conditions: 20 μM peptide, IkBαΔN2 expressed, 20 hours
# Protocol: as §1
# Alternatively, the number of GFP-positive cells displaying pycnotic nucleus was determined. The results correspond to the mean±standard deviation of three independent determinations.
# Apoptosis was determined by scoring the number of cells displaying pycnotic nuclei. Nuclei of live cells were labeled with Hoechst 33342 (10 μg/ml final concentration) for about 5 minutes and the cells were then analyzed (at least 400 cells per condition) using an inverted Leica DMIRB microscope equipped with fluorescence and transmitted light optics. […] In this case, the extent of apoptosis was assessed in the transfected cells only.
# JNK = test: Western blot of phospho-JNK in U2OS cells; conditions: 20 μM peptide
# Protocol: (§2) U2OS cells (2×10^5) were plated in 6 well plates and treated for the indicated periods of time with the indicated combinations of the HW-TAT48-57 or TAT-RasGAP317-326 peptides (at a 20 μM concentration) and cisplatin (at a 30 μM concentration). Positive controls for JNK and p38 activation were obtained following stimulation of the cells with 1 μg/ml anisomycine during 3 hours and with 0.5 M sorbitol for 30 min, respectively. The quantitations depicted under the Western blots were performed on the 12-hour bands and normalized against the positive controls. The results correspond to the mean±standard deviation of three independent experiments. […]
# p38 MAPKs = test: Western blot of phospho-p38 in U2OS cells; conditions: 20 μM peptide
# Protocol: as §2
sequence,measurement,setting,value
GRKKRRQRRRGGWMWVTNLRTD [TAT-RasGAP317-326],difference in translocation between non cancer cells and cancer cells,[1]; 3 hours,No difference in translocation
same,cellular uptake of the peptide,"[1]; 3 hours at 37° C., four tumor and two non cancer cell lines",efficiently entered all these cell lines
same,"enhancement of the ability of cisplatin, adriamycin and mitoxantrone to kill cancer cell lines","[2]; 20 hours, sub-lethal genotoxin concentrations","enhanced the ability of cisplatin, adriamycin, and mitoxantrone to kill the tested cancer cell lines"
same,apoptosis induced in control conditions (no genotoxin),[2]; cancer cell lines,"did not, or only marginally, induce apoptosis in control conditions"
same,NFkB activation in U2OS cells (single agent),NFκB activity; 20 μM peptide or cisplatin,activated
same,NFkB activation with both cisplatin and peptide,"NFκB activity; U2OS cells, cisplatin plus 20 μM peptide",additive activation of NFkB
same,potency to enhance cisplatin killing of U2OS cells in presence of NFkB inhibitor,U2OS cells,unaffected by the NFkB inhibitor
same,activation of JNK pathway by peptide alone,JNK,neither the control HIV-TAT48-57 peptide nor the TAT-RasGAP317-326 peptide activated these MAPK pathways
same,activation of p38 MAPK pathway by peptide alone,p38 MAPKs,neither the control HIV-TAT48-57 peptide nor the TAT-RasGAP317-326 peptide activated these MAPK pathways
